Experimental data as given in ChEMBL document CHEMBL1159131, “Structural modifications of 6-naphthalene-2-carboxylate retinoids” (Bioorg Med Chem Lett, 1996).
Activity calls are given as the source filed them. The rule behind the calls is not given here.

Assays:
[1] = biological target: T1, Retinoic acid receptor alpha (Homo sapiens) (UniProt P10276); assay: Maximum retinoic acid receptor (RAR)-alpha transactivation activity relative to retinoic acid at 10e-6 M
T1 sequence (whole entry): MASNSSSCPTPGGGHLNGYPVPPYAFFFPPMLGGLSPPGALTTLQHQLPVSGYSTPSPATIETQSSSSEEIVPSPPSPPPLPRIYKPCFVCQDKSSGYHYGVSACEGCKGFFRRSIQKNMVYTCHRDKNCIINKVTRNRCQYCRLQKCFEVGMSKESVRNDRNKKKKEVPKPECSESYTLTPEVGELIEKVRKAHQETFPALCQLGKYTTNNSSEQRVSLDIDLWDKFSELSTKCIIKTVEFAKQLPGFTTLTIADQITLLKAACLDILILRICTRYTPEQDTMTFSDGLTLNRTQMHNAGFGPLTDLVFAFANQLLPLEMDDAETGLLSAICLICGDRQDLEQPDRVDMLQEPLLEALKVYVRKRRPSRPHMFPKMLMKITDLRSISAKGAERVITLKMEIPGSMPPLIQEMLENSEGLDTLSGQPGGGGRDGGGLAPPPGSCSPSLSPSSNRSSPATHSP

[2] = biological target: T2, Retinoic acid receptor beta (Homo sapiens) (UniProt P10826); assay: Transactivation activity at retinoic acid receptor beta.
T2 sequence (whole entry): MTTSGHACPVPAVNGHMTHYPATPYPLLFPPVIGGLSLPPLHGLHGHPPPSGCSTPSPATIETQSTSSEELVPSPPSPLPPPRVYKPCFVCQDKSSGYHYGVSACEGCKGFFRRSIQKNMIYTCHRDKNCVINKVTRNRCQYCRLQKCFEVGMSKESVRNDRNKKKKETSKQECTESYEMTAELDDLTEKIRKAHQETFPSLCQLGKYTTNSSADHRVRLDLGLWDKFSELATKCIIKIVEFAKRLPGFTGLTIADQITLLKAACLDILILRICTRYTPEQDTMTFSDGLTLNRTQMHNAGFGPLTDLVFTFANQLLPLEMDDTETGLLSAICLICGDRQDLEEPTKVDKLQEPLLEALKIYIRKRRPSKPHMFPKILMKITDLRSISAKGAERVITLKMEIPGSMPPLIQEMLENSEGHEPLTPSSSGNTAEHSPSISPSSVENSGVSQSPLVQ

[3] = biological target: T2, Retinoic acid receptor beta (Homo sapiens); assay: Maximum retinoic acid receptor (RAR)-beta transactivation activity relative to retinoic acid at 10e-6 M
[4] = biological target: T1, Retinoic acid receptor alpha (Homo sapiens); assay: Transcriptional activation activity against retinoic acid receptor RAR alpha
[5] = biological target: T3, Retinoic acid receptor gamma (Homo sapiens) (UniProt P13631); assay: Transcriptional activation activity against retinoic acid receptor RAR gamma; Not active
T3 sequence (whole entry): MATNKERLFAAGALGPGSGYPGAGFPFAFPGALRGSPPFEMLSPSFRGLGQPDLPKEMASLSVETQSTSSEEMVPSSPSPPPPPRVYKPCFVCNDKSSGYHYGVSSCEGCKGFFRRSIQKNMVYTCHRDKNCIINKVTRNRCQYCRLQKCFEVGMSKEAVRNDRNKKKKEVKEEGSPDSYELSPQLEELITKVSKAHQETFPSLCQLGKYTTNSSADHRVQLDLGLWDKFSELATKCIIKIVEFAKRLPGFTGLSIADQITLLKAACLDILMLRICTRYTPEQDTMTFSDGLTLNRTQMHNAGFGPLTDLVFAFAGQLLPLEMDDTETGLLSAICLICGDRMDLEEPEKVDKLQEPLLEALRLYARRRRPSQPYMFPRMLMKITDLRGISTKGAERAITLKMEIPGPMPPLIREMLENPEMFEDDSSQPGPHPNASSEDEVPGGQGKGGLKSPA

[6] = biological target: T2, Retinoic acid receptor beta (Homo sapiens); assay: Transcriptional activation activity against retinoic acid receptor RAR beta; Not active
[7] = biological target: T1, Retinoic acid receptor alpha (Homo sapiens); assay: Transcriptional activation activity against retinoic acid receptor RAR alpha; Not active

Row | Max [1] [%] | EC50 ratio [2] | Max [3] [%] | EC50 ratio [4] | EC50 ratio [5] | EC50 ratio [6] | EC50 ratio [7] | SMILES
1 | 45 | 10 | 88 | 25 | – | – | – | CC1(C)CCC(C)(C)c2cc(Sc3ccc4cc(C(=O)O)ccc4c3)ccc21
2 | 0 | – | 0 | – | inactive | inactive | inactive | CC1(C)CCC(C)(C)c2cc(C(=O)c3ccc4cc(C(=O)O)ccc4c3O)ccc21
3 | 27 | 17 | 92 | 25 | – | – | – | CC1(C)CCC(C)(C)c2cc(Nc3ccc4cc(C(=O)O)ccc4c3)ccc21
4 | 0 | 167 | 52 | – | – | – | inactive | CC1(C)CCC(C)(C)c2cc([S+]([O-])c3ccc4cc(C(=O)O)ccc4c3)ccc21 (stereo unspecified)
5 | 0 | 133 | 30 | – | – | – | inactive | CC1(C)CCC(C)(C)c2cc(C(O)c3ccc4cc(C(=O)O)ccc4c3)c(F)cc21 (stereo unspecified)
6 | 0 | – | 0 | – | inactive | inactive | inactive | COc1c(C(=O)c2ccc3cc(C(=O)O)ccc3c2)ccc2c1C(C)(C)CCC2(C)C
7 | 34 | 15 | 81 | 25 | – | – | – | CC1(C)CCC(C)(C)c2cc(C(=O)c3ccc4cc(C(=O)O)ccc4c3)c(F)cc21
8 | 0 | – | 0 | – | inactive | inactive | inactive | CC1(C)CCC(C)(C)c2c(F)cc(C(O)c3ccc4cc(C(=O)O)ccc4c3)cc21 (stereo unspecified)
9 | 56 | 20 | 120 | 63 | – | – | – | CC1(C)CCC(C)(C)c2cc(Oc3ccc4cc(C(=O)O)ccc4c3)ccc21
10 | 26 | 25 | 81 | 25 | – | – | – | Cc1cc2c(cc1C(=O)c1ccc3cc(C(=O)O)ccc3c1)C(C)(C)CCC2(C)C
11 | 42 | 40 | 96 | 38 | – | – | – | CC1(C)CCC(C)(C)c2cc([S+]([O-])/C=C/c3ccc(C(=O)O)cc3)ccc21 (stereo unspecified)
12 | 23 | 14 | 61 | 8 | – | – | – | COc1cc2c(cc1C(=O)c1ccc3cc(C(=O)O)ccc3c1)C(C)(C)CCC2(C)C
13 | 0 | 200 | 35 | – | – | – | inactive | CC1(C)CCC(C)(C)c2cc(S(=O)(=O)/C=C/c3ccc(C(=O)O)cc3)ccc21
14 | 0 | 100 | 96 | – | – | – | inactive | Cc1cc2c(cc1C(O)c1ccc3cc(C(=O)O)ccc3c1)C(C)(C)CCC2(C)C (stereo unspecified)
15 | 0 | 133 | 74 | – | – | – | inactive | CC1(C)CCC(C)(C)c2c1ccc(C(O)c1ccc3cc(C(=O)O)ccc3c1)c2F (stereo unspecified)
16 | 0 | – | 77 | – | – | – | – | CC1(C)CCC(C)(C)c2cc(C(O)c3ccc4cc(C(=O)O)ccc4c3)ccc21 (stereo unspecified)
17 | – | 1.2 | – | 0.7 | – | – | – | CC1(C)CCC(C)(C)c2cc(C(=O)/C=C/c3ccc(C(=O)O)cc3)ccc21
18 | 118 | 0.8 | 158 | 1.3 | – | – | – | CC1(C)CCC(C)(C)c2cc(S/C=C/c3ccc(C(=O)O)cc3)ccc21
19 | 63 | 4 | 81 | 10 | – | – | – | CC1(C)CCC(C)(C)c2c(F)cc(C(=O)c3ccc4cc(C(=O)O)ccc4c3)cc21
20 | 0 | 133 | 32 | – | – | – | inactive | CC1(C)CCC(C)(C)c2cc(S(=O)(=O)c3ccc4cc(C(=O)O)ccc4c3)ccc21
21 | 0 | – | 0 | – | inactive | inactive | inactive | COc1c(C(=O)c2ccc3c(c2)C(C)(C)CCC3(C)C)ccc2cc(C(=O)O)ccc12

Row | SMILES | Max [1] [%] | EC50 ratio [2] | Max [3] [%] | EC50 ratio [4] | EC50 ratio [5] | EC50 ratio [6] | EC50 ratio [7]
22 | CC1(C)CCC(C)(C)c2c1cc(O)c(C(=O)c1ccc3cc(C(=O)O)ccc3c1)c2F | 46 | 6.7 | 87 | 100 | – | – | –
23 | CC1(C)CCC(C)(C)c2cc(C(O)c3ccc4cc(C(=O)O)ccc4c3)c(O)cc21 (stereo unspecified) | 0 | – | 18 | – | – | inactive | inactive
24 | CC1(C)CCC(C)(C)c2cc(C(=O)c3ccc4cc(C(=O)O)ccc4c3)c(O)cc21 | 44 | 7.5 | 76 | 25 | – | – | –
